One series can be described thus: Absorbance profile. Type of series: physicochemical. The following applies: Example 14. The procedure:
(§1) palythine was extracted from the red algae Palmaria decipiens using a methanol extraction (Confirmed by HPLC & LC-MS). The absorbance profile was determined and then the extract was exposed to increasing doses of solar simulated radiation (SSR) from a solar simulator (conforming to COLIPA standards). The absorbance profile was measured to determine photostability. Compositions according to the invention (in this example solutions of palythine) were prepared at different palythine concentrations (0.3% to 10%), as well as controls comprising 0% palythine, and HaCat keratinocytes were irradiated with SSR or UVA radiation through the solutions, which were placed on top of the cells.
(§2) Palythine was exposed to increasing doses of solar simulated radiation and absorbance measured. The absorbance spectrum of the palythine was measured between 280-400 nm using a Spectra Max 384 Plus (Molecular Devices; California, USA) spectrophotometer. Referring to figure 18, we show the photostability of palythine after exposure to increasing doses of solar simulated radiation. Palythine (0.0001% w/v palythine extracted from red algae Chondrus yendoi in PBS) was exposed to increasing doses of solar simulated radiation and the absorbance was measured to determine photostability.

The test system of another series is HaCaT cells. Description: UVR induced gene expression by qPCR (TaqMan, ΔΔCT). The class given is cell-based, human. On the procedure:
The gene expression analysis was performed on HaCat cells exposed as previously described. Following irradiation growth media was replaced RNA extraction was carried out 12 hours later. RNA extraction was carried out using the mirVana miRNA Isolation kit (Life Technologies, Paisley, UK) according to the manufacturers protocol for total RNA extraction. RNA quality was tested using RNA 6000 Nano Kit according to the manufacturers instruction.
Total RNA was then converted to cDNA using the High Capacity cDNA Reverse Transcription Kit (Applied Biosystems, Paisley, UK) according to manufacturers instructions. qPCR was performed using TaqMan Gene Expression Assays (Applied Biosystems) according to the manufacturers protocol with the following TaqMan FAM labelled DNA probes IL-20, IL-8, IL-6, TFRC, HMOX-1, MMP-3, MMP-12. VIC labelled GAPDH was used as the housekeeping gene. For each gene the fold change was measured using the ΔΔCT method.
Cells irradiated with 5J/cm^2 SSR with 0%, 0.3%, 4% and 10% palythine. RNA was extracted, cDNA synthesised, and gene expression analysed by qCR. […] The mean fold change ± SD was analysed with n≥3. The difference compared to 0% irradiated sample was analysed using ANOVA. Significance is expressed by *.
Cells irradiated with 5J/cm^2 SSR with 0%, 0.3% & 4% palythine or Helionori. RNA was extracted, cDNA synthesised, and gene expression analysed by qPCR. Data presented in figure 13 show the protection offered by palythine according to the invention compared with protection offered by prior art composition Helionori, as assessed by UVR induced gene expression.
(§3) DNA damage was then measured using the comet assay and IHC-IF looking at the specific DNA lesions of cyclobutane pyrimidine dimers (CPD) and 8-oxoGua. A percentage reduction in general and specific DNA damage was then determined by comparing cells irradiated with and without sunscreen compositions. Antioxidant ability was detected using H2DCFDA, which fluoresces when reacting with ROS with the addition of palythine post exposure. SSR induced gene expression covering a range of different markers (inflammation, photoageing, oxidative damage) was assessed using qPCR. The ability of palythine to reduce this gene expression was then assessed.
In general terms: Real-time PCR tracks product formation cycle by cycle.

The subject of the next series is HaCaT keratinocytes. Kind of series: Reactive oxygen species assay by FACS (carboxy-H2DCFDA), UV filtering and antioxidant effect, Example 16. The class given is cell-based, human. As to conditions: for ROS production compared to irradiated control: 20J/cm^2 of SSR, n=5, p<0.0001. The procedure:
as §3
All assays were performed on HaCat cells grown as a 70-80 % confluent monolayer in multiwell plates. They were washed three times in PBS and covered with palythine dissolved in PBS at differing concentrations (0, 0.1, 0.3 %, 4 % and 10 % w/v). The cells were then irradiated with either SSR or UVA radiation (5-20 J/cm^2 or 20 J/cm^2 respectively). After irradiation the palythine solution was removed and the cells washed a further three times and replaced in media or processed immediately depending on the experimental design.
HaCat cells were irradiated as above or for the anti-oxidant studies, cells were also incubated with palythine post irradiation. Cells were then incubated with 10uM carboxy-H2DCFDA (Invitrogen, UK) in PBS for 30 mins in the dark at 37 °C, 5 % CO2. Cells were washed in PBS, trypsinised for 10 minutes at 37 °C, centrifuged at 1200 rpm for 5 minutes at room temperature and resuspended in PBS and counterstained with DAPI for analysis by FACS. This was carried out with a Becton Dickinson FACSAria II. Cells were gated to only analyse live cells (DAPI negative) and the average mean green intensity per condition was then plotted from at least 10,000 measured events. Analysis was carried out using FlowJo 8.7 (USA).
(Flow cytometry measures light scatter and fluorescence of single cells or particles in a stream.)

Series [1] can be described thus: Photostability under increasing doses of solar simulated radiation (absorbance). Type of series: physicochemical. The procedure: as §1, §2
Setting [2] is: Figure 8, RNA extraction 12 hours after irradiation, gene not responsive to UVR.

We go through one molecule from patent EP3324923B1, “COMPOSITIONS AND METHODS USING PALYTHINE” (King's College London, priority 2015, dated 2017).

Turning to `COC1=C(NCC(=O)O)CC(O)(CO)CC1=N` (stereo not drawn) [palythine], the “absorbing in the UVB and UVA ranges” value in the series “Absorbance profile” was 290-350 nm. For the same molecule, the “protection, UVR induced gene expression (decrease compared to the irradiated control)” value in the series on HaCaT cells (0.3% palythine, 5J/cm^2 SSR, figure 13) is reported as “significant protection”. Further, the HMOX-1 gene expression result in the series on HaCaT cells (0.3 % palythine, Figure 8, compared to the control) was “significantly reduced”. Also, in the series with HaCaT cells (setting [2]), the “MMP-12 gene expression compared to the control” value is on record as “no effect”. In addition, in the series with HaCaT cells (setting [2]), the “TFRC gene expression compared to the control” value is reported as “no effect”. Moreover, the “expression of the genes compared to the irradiated control (containing no sunscreen)” value in the series on HaCaT cells (IL-20, IL-6, IL-8, MMP-3, HMOX-1, 5J/cm^2 SSR, 0.3% & 4%) is “significant reduction”. Also, the “SSR induced differential gene expression for all markers investigated” value with HaCaT cells (palythine at 0.3% or greater, all concentrations, p=<0.05) was “significantly reduced”. For the same molecule, the “ROS production compared to irradiated control” value with HaCaT keratinocytes (10% palythine post exposure (anti-oxidant)) and in the series on HaCaT keratinocytes (palythine 0.3-10%w/v added pre exposure) was “significant reduction” each time. The “ROS production due to SSR irradiation (anti-oxidant properties)” value in the series on HaCaT keratinocytes (Example 14, H2DCFDA, addition of palythine post exposure, p=<0.05) is reported as “significant reduction”. Besides, the photostability entry in series [1] (after 40SED of solar simulated radiation, 0.0001% w/v palythine from Chondrus yendoi in PBS, absorbance 280-400 nm) is recorded as “extremely photostable with negligible photodegradation”; in series [1] (after 60 standard erythema doses (SED) of SSR, palythine from Palmaria decipiens) it was “extremely photostable”.
